“And” between values parts separate entries of the source, which are not always exact repeats. Identical values can stand only once.
What was measured:
glycine B site = molecular target: T1, glycine B site (Rattus norvegicus, UniProt P35439); test: Binding of [^3 H]-glycine to rat brain membranes (glycine B site); set-up: species or system rat (Wistar); settings: [^3 H]-glycine 10 nM, 20 minutes at 4° C., concentration inhibiting radioligand binding by 50%
T1 construct: from tissue; host or cells: rat brain without cerebellum (Wistar males), Triton-treated membranes
Method: (§1) Preparation of the membranes (according to Yoneda et al., J. Neurochem., 55, 1, 237-244, 1990)
(§2) The membranes are prepared and used in the same way for both radioligands. The buffers are prepared with sterile Milli-Q water (Millipore) which is deionized and filtered, just before use, on a nitrocellulose filter (0.45 μm).
(§3) After dissection, the brains from rats (Wistar males, 240-260 g), freed from the cerebellum, are placed in an ice-cold buffer comprising Tris-acetate (1 mM), EGTA (1 mM) and sucrose (320 mM) at pH 7. The brains are milled and then homogenized using a polytron. The suspension is centrifuged for 10 minutes at 1000 g and the supernatent containing the membranes is recovered and recentrifuged for 20 minutes at 35000 g. The pellet, freed from a brown ring, is recovered in a lysis buffer comprising Tris-acetate (1 mM) and EGTA (1 mM) at pH 8. The suspension is then left for 15 minutes at 4° C. and is then centrifuged for 20 minutes at 35000 g. The pellet is recovered in a Tris-acetate (50 mM) buffer at pH 7.4 containing 0.08% Triton and left for 30 minutes at 4° C.
(§4) After two successive centrifugings, the pellet is taken up in Tris-acetate (50 mM) buffer at pH 7.4, divided into aliquots and stored at -80° C. On the day of the experiment, at most 3 weeks after the preparation, the membranes are washed twice with Tris-acetate (50 mM) buffer at pH 7.4.
(§5) Binding experiments (according to Yoneda et al., J. Neurochem., 60, 2, 634-645, 1993)
(§6) The free and bound radioligands are separated on GF/B filters, preimpregnated with PEI (0.1%), using a Brandle filtration device. […] Each filter is rinsed 3 times. The radioactivity is measured using a β-counter (Tricarb 1500, Packard) and expressed in dpm. The curves obtained are analyzed using GraphPad Prism software (non-linear regression).

NMDA channel = test: Binding of [^3 H]-MK 801 to rat brain membranes (NMDA channel), stimulation or inhibition; set-up: species or system rat (Wistar); settings: for ME (maximum effect) on [^3 H]-MK 801 binding: with respect to a base of 0%, + = stimulation, - = inhibition; for IC50: read-out: IC50, [^3 H]-MK 801 binding, [^3 H]-MK 801 1 nM, 120 minutes at 20° C., antagonists; for activity at glycine B receptor (in words): agonist character
Method: as §1, §2, §3, §4, §5, §6
The opening of the channel of the NMDA receptor complex is modulated positively by the glycinergic site.

IC50 (glycine B site)	ME (maximum effect) on [^3 H]-MK 801 binding (NMDA channel; at 100 μM) [%]	IC50 (NMDA channel) [µM]	IC50 (glycine B site; listed as compound of the invention) [µM]	ME (maximum effect) on [^3 H]-MK 801 binding (NMDA channel; at 10 μM)	ME (maximum effect) on [^3 H]-MK 801 binding (NMDA channel; at 10 μM, listed as compound of the invention) [%]	activity at glycine B receptor (in words) (NMDA channel; qualitative, listed as compound of the invention)	activity at glycine B receptor (in words) (NMDA channel; qualitative, listed as compound of the present invention)	effect on binding of [^3 H]-MK 801 (in words) (NMDA channel; rat brain membranes, qualitative)	ME (maximum effect) on [^3 H]-MK 801 binding (NMDA channel; at 1 μM) [%]	Compound
7.3 µM	-85 ± 7	6.73	–	–	–	–	–	–	–	N[C@@H]1CCN(O)C1=O [(+)-HA966]
6.81 ± 0.545 µM	–	–	6.8	+46 ± 3%	46	behaves as an agonist	powerful partial agonist	stimulates the binding of [^3 H]-MK 801	–	O=C1CNCN1O [Example 1, 3-Hydroxy-4-imidazolidinone]
0.026 µM and ~0.026 µM	–	0.022	–	–	–	–	–	–	-91 ± 3	O=c1[nH]c2cc(Cl)ccc2c(O)c1-c1cccc(Oc2ccccc2)c1 [L 701,324]
